Results published in the supplement of paper PMC10307832.

What was measured:
Test in all cases: relative viability (nuclei count vs DMSO), 5 days (fraction); higher = more cells survive
[1] = compound: Cc1ccccc1C(C(=O)NC1CCCCC1)N(C(=O)Cn1ccnc1C)c1cccc(F)c1 [IDH-C35] + NC(=O)Nc1cc(-c2cccc(F)c2)sc1C(=O)N[C@H]1CCCNC1 [AZD7762] (partner 0.2 µM)
Outline: (§1)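 Lung cancer cell lines in 1536-well plates were dosed by pin tool the day after seeding, either with one drug alone or with a fixed anchor-drug dose plus five library-drug doses (not always all listed) in √10 steps. After 5 days, cells were fixed and their nuclei stained in one step (final 0.05% Triton X-100, 1% formaldehyde, 1 ug/ml Hoechst), then counted on 4× images. Relative viability is the nuclei count in treated wells divided by that in vehicle wells. Values are medians of duplicate plates.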

[2] = compound: Cc1ccccc1C(C(=O)NC1CCCCC1)N(C(=O)Cn1ccnc1C)c1cccc(F)c1 [IDH-C35] + CS(=O)(=O)CCNCc1ccc(-c2ccc3ncnc(Nc4ccc(OCc5cccc(F)c5)c(Cl)c4)c3c2)o1 [Lapatinib] (partner 2 µM)
Outline: as §1

[3] = compound: CC1=C(C(=NN1)C)CC2=C(C3=C(S2)N(C(=O)N(C3=O)C)CC(C)C)C(=O)N4C[C@@H](CO4)O + COc1cccc2cc(-c3nc([C@H]4CC[C@H](C(=O)O)CC4)n4ncnc(N)c34)[nH]c12 [OSI-027] (partner 0.5 µM)
Outline: as §1

[4] = compound: Cc1ccccc1C(C(=O)NC1CCCCC1)N(C(=O)Cn1ccnc1C)c1cccc(F)c1 [IDH-C35] + CCNC(=O)c1noc(-c2cc(C(C)C)c(O)cc2O)c1-c1ccc(CN2CCOCC2)cc1 [Luminespib] (partner 0.01 µM)
Outline: as §1

Row | Cell Line | relative viability ([1]; first compound 0.08 µM) | relative viability ([1]; first compound 0.253 µM) | relative viability ([1]; first compound 0.8 µM) | relative viability ([1]; first compound 2.53 µM) | relative viability ([1]; first compound 8 µM) | relative viability ([2]; first compound 0.08 µM) | relative viability ([2]; first compound 0.253 µM) | relative viability ([2]; first compound 0.8 µM) | relative viability ([2]; first compound 2.53 µM) | relative viability ([2]; first compound 8 µM) | relative viability ([3]; first compound 0.0025 µM) | relative viability ([3]; first compound 0.007906 µM) | relative viability ([3]; first compound 0.025 µM) | relative viability ([3]; first compound 0.07906 µM) | relative viability ([3]; first compound 0.25 µM) | relative viability ([4]; first compound 0.08 µM) | relative viability ([4]; first compound 0.253 µM) | relative viability ([4]; first compound 0.8 µM) | relative viability ([4]; first compound 2.53 µM) | relative viability ([4]; first compound 8 µM)
1 | NCI-H1975 | 0.755 | 0.75 | 0.766 | 0.818 | 0.793 | 0.833 | 0.86 | 0.85 | 0.974 | 0.928 | 0.751 | 0.648 | 0.802 | 0.804 | 0.879 | 0.165 | 0.244 | 0.206 | 0.276 | 0.135
2 | NCI-H1993 | 0.755 | 0.749 | 0.755 | 0.784 | 0.713 | 0.858 | 0.763 | 0.79 | 0.795 | 0.92 | 0.515 | 0.539 | 0.541 | 0.463 | 0.57 | 0.793 | 0.882 | 0.914 | 0.836 | 0.936
3 | NCI-H2085 | 1.04 | 1.09 | 0.953 | 0.985 | 0.924 | 0.834 | 0.741 | 0.764 | 0.848 | 0.728 | 0.722 | 0.685 | 0.759 | 0.736 | 0.447 | 0.352 | 0.458 | 0.519 | 0.428 | 0.416
4 | NCI-H2087 | 1.39 | 1.32 | 1.16 | 1.23 | 1.36 | 1.04 | 1.06 | 0.867 | 1.07 | 0.834 | 0.72 | 0.506 | 0.517 | 0.564 | 0.54 | 0.105 | 0.141 | 0.164 | – | 0.128
5 | NCI-H2126 | 0.983 | 0.96 | 0.983 | 0.927 | 0.946 | 0.77 | 0.77 | 0.705 | 0.777 | 0.739 | 0.78 | 0.669 | 0.787 | 0.661 | 0.684 | 0.841 | 0.858 | 0.892 | 0.897 | 0.883
6 | NCI-H2170 | 1.04 | 0.919 | 0.899 | 0.786 | 0.757 | 0.254 | 0.259 | 0.28 | 0.274 | 0.272 | 0.736 | 0.792 | 0.687 | 0.726 | 0.681 | 0.678 | 0.799 | 0.684 | 0.687 | 0.72
7 | NCI-H2347 | 0.781 | 0.799 | 0.884 | 0.718 | 0.658 | 0.99 | 0.969 | 0.914 | 0.902 | 0.804 | 0.472 | 0.496 | 0.444 | 0.331 | 0.354 | 0.653 | 0.575 | 0.48 | 0.508 | 0.369
8 | NCI-H2405 | 0.857 | 0.771 | 0.815 | 0.913 | 0.768 | 1.1 | 1.2 | 1.09 | – | 0.957 | 0.703 | 0.645 | – | 0.62 | 0.661 | 0.755 | 0.63 | 0.614 | 0.706 | 0.64
9 | NCI-H3122 | 1.02 | 0.996 | 1.02 | 0.987 | 1.03 | 1.06 | 0.951 | 1.04 | 1 | 1.03 | 0.912 | 0.765 | 0.927 | 1.04 | 0.989 | 0.0958 | 0.105 | 0.0707 | 0.106 | 0.0868
10 | PC-3 [JPC-3] | 0.75 | 0.867 | 0.86 | 0.844 | 0.78 | 0.431 | 0.486 | 0.444 | 0.44 | 0.492 | 0.763 | 0.679 | 0.755 | 0.785 | 0.859 | 0.737 | 0.596 | 0.728 | 0.771 | 0.692
11 | PC-14 | 0.339 | 0.427 | 0.32 | 0.302 | 0.387 | 0.361 | 0.304 | 0.316 | 0.363 | 0.423 | 0.785 | 1.19 | 0.78 | 1.01 | 1.16 | 0.148 | 0.154 | 0.177 | 0.243 | 0.198
12 | RERF-LC-KJ | 1.03 | 1.03 | 0.982 | 0.794 | 1.01 | 0.939 | 0.856 | 0.91 | 0.802 | 0.773 | 0.589 | 0.519 | 0.598 | 0.681 | 0.627 | 1.21 | 1.34 | 1.22 | 1.17 | 1.19
